Test results as given in patent publication US11203608B2, “Platinum-containing compounds, and related compositions and uses thereof” (Massachusetts Institute of Technology, priority 2019, dated 2021).
Where two headings read alike, the source gives them in different places.

Key:
[1] = system: MDA-MB-231 human breast adenocarcinoma; experiment: Cell growth, resazurin assay, MDA-MB-231; format: cell-based; conditions: 96-h exposure (table title)
Experimental: (§4) Cells were cultured in 10 mL of Advanced DMEM/F12 (ADMEM/F12), supplemented with 5% FBS, 2 mM GlutaMAX, and 1% Penicillin-Streptomycin in 10 cm tissue culture plates. Cells were then plated into 96-well plates with about 2.5×10^3 cells per well. Cells were plated with 200 μL per well of ADMEM/F12 supplemented with 5% FBS, 2 mM GlutaMAX, and 1% Penicillin-Streptomycin. Cells were treated with dose responses of doxorubicin, oxaliplatin, or doxaliplatin upon plating. The cells were then cultured for 72 hours following drug treatment, and cell growth was measured by resazurin assay.

[2] = system: doxorubicin-resistant A2780ADR human ovarian cancer cell line; experiment: Cell growth, resazurin assay, A2780ADR; format: cell-based; conditions: 72-h exposure
Experimental: as §4

[3] = system: cisplatin-resistant A2780CIS human ovarian cancer cell line; experiment: Cell growth, resazurin assay, A2780CIS; format: cell-based; conditions: 72-h exposure
Experimental: as §4

[4] = system: A2780 human ovarian cancer cell line; experiment: Cell growth, resazurin assay, A2780; format: cell-based; conditions: A2780, 72-h exposure
Experimental: as §4

[5] = system: PC3 human prostate adenocarcinoma; experiment: Cell growth, resazurin assay, PC3; format: cell-based; conditions: 96-h exposure (table title)
Experimental: as §4

[6] = system: OVCAR8 human ovarian cancer cell line; experiment: Cell growth, resazurin assay, OVCAR8; format: cell-based; conditions: 72-h exposure
Experimental: as §4

[7] = system: APC−/−; TdTomato+ (A-tdt) organoids; experiment: Viability of A-tdt murine colorectal cancer organoids, resazurin assay; format: cell-based; conditions: 72-h exposure (table title), read-out: IC50 against A-tdt organoids
Text: (§1) Colonic crypts were isolated and colon organoids were generated from the following mouse genotypes on a C57Bl/6 background: 1. Rosa-LSL-TdTomato (hereafter LSL-tdt), 2. P53^f1/f1; LSL-tdt, and 3. LSL-KRAS^G12D/WT; P53^fl/fl; LSL-tdt mice. Subsequently, the pSECC-APC plasmid (carrying Cre, Cas9, and sgAPC) was transfected into each of the above three genotypes of colon organoids. This transfection strategy generated, in a single step, the following colorectal cancer organoids, including 1. APC^−/−; TdTomato^+ (A-tdt), 2. APC^−/−; P53^−/−; TdTomato^+ (AP-tdt), and 3. APC^−/−; KRAS^G12D/WT; P53^−/−; TdTomato^+ (AKP-tdt). Organoids of the desired genotype were selected for by Wnt/Rspo withdrawal for APC^−/−, Nutlin-3 addition for P53^−/−, and EGF withdrawal for KRAS^G12D.
(§2) Twenty four hours after seeding the organoids, a media change was performed and dose responses of oxaliplatin, doxorubicin and doxaliplatin were added. […] Organoids were cultured in Advanced DMEM/F12 supplemented with 2 mM GlutaMAX, 1% Penicillin-Streptomycin, 2% B27, and Y-27632 (10 μM).

[8] = system: A2780 human ovarian cancer cell line; conditions: human, 3 h
Experimental: (§5) ICP-MS was performed on an Agilent 7900 ICP-MS in helium mode.
(§6) The cells in a six-well plate were treated with oxaliplatin, doxaliplatin, or a mixture of doxorubicin and oxaliplatin at indicated concentration in 2 mL of Advanced DMEM/F12 (ADMEM/F12), supplemented with 5% FBS, 2 mM GlutaMAX, and 1% Penicillin-Streptomycin. After three hours, the media were removed. The cells were washed with xl PBS buffer containing EDTA (100 μM, 4 mL×2). To each well, MilliQ water (1.0 mL) was added. After 15 min, the cells were suspended. A portion of the resulting cell lysate (900 μL) was transferred to an Eppendorf tube. The samples were frozen in liquid nitrogen and thawed at room temperature. This procedure was repeated for three times. The insoluble lysate was pelleted (10000 rpm for 10 min). […] Pierce 660 nm Protein solution (200 μL) was added to each well. An aliquot of the lysate (14.2 μL) was added to each well. The plate was shaken and read on a plate reader. The remaining samples were frozen at liquid nitrogen temperature and lyophilized. The dried material was digested with Aristar® ultrapure concentrated nitric acid (70%) at 70° C. for one hour. An aliquot of this solution (142 μL) was mixed with molecular biology grade water (2000 μL) and a terbium internal standard (40 μL, 100 ppb). The platinum content was then determined using an Agilent 7900 ICP-MS in helium mode. The concentration of platinum in the cells was normalized to measured protein concentration described above.

[9] = system: A549 human lung carcinoma; experiment: Cell growth, resazurin assay, A549; format: cell-based; conditions: 96-h exposure (table title)
Experimental: as §4

[10] = system: APC−/−; KRASG12D/WT; P53−/−; MSH2−/− (AKP-MSH2) organoids; experiment: Viability of AKP-MSH2 murine colorectal cancer organoids; format: cell-based; conditions: 72-h exposure, read-out: IC50 against AKP-MSH2 organoids
Text: (§3) To generate 4. APC^−/−; KRAS^G12D/WT; P53^−/−; (AKP) and 5. APC^−/−; KRAS^G12D/WT; P53^−/−; MSH2^−/− (AKP-MSH2) colon cancer organoids, colonic crypts were isolated and colon organoids were generated from the following mouse genotypes on a C57Bl/6 background: 4. LSL-KRAS^G12D/WT; P53^fl/fl mice and 5. LSL-KRAS^G12D; P53^fl/fl; MSH2^fl/fl mice. Subsequently, the pSECC-APC plasmid (carrying Cre, Cas9, and sgAPC) was transfected into each of the above two genotypes of colon organoids. Following pSECC-APC transfection, Wnt/Rspo withdrawal was performed and surviving (APC^−/−) single organoids were cloned and PCR genotyped for Cre mediated deletion of p53 and/or MSH2, and for Cre mediated activation of oncogenic KRAS^G12D.
as §2

[11] = system: U2OS human osteosarcoma; experiment: Cell growth, resazurin assay, U2OS; format: cell-based; conditions: 96-h exposure (table title), read-out: IC50 U2OS (bone)
Experimental: as §4

[12] = system: doxorubicin-resistant A2780ADR ovarian cancer cell line
Experimental: as §5, §6

[13] = system: OVCAR8-OXR oxaliplatin-resistant human ovarian cancer cell line; experiment: Cell growth, resazurin assay, OVCAR8-OXR; conditions: for IC50: read-out: IC50 OVCAR8OXR; for IC80: read-out: IC80 OVCAR8OXR; for Fold Resistance (IC50, OVCAR8OXR vs OVCAR8): based on IC50 values; for Fold Resistance (IC80, OVCAR8OXR vs OVCAR8): based on IC80 values
Experimental: Cells were cultured in 10 mL of Advanced DMEM/F12 (ADMEM/F12), supplemented with 5% FBS, 2 mM GlutaMAX, and 1% Penicillin-Streptomycin in 10 cm tissue culture plates. Cells were then plated into 96-well plates with about 2.5×10^3 cells per well. Cells were plated with 200 μL per well of ADMEM/F12 supplemented with 5% FBS, 2 mM GlutaMAX, and 1% Penicillin-Streptomycin. […] The cells were then cultured for 72 hours following drug treatment, and cell growth was measured by resazurin assay.

[14] = system: HL60 human leukemia cell line; experiment: Cell growth, resazurin assay, HL60; format: cell-based; conditions: 96-h exposure (table title)
Experimental: as §4

[15] = system: APC−/−; KRASG12D/WT; P53−/−; TdTomato+ (AKP-tdt) organoids; experiment: Viability of AKP-tdt murine colorectal cancer organoids, resazurin assay; format: cell-based; conditions: 72-h exposure (table title), read-out: IC50 against AKP-tdt organoids
Text: as §1, §2

[16] = system: HT-29 human colorectal adenocarcinoma; experiment: Cell growth, resazurin assay, HT-29; format: cell-based; conditions: 96-h exposure (table title), read-out: IC50 HT-29 (colon)
Experimental: as §4

[17] = system: APC−/−; KRASG12D/WT; P53−/− (AKP) organoids; experiment: Viability of AKP murine colorectal cancer organoids; format: cell-based; conditions: 72-h exposure, read-out: IC50 against AKP organoids
Text: as §3, §2

[18] = system: APC−/−; P53−/−; TdTomato+ (AP-tdt) organoids; experiment: Viability of AP-tdt murine colorectal cancer organoids, resazurin assay; format: cell-based; conditions: 72-h exposure (table title), read-out: IC50 against AP-tdt organoids
Text: as §1, §2

[19] = system: A2780 human ovarian cancer cell line; experiment: Whole-cell platinum uptake by ICP-MS, A2780; conditions: three hours
Experimental: as §5, §6

Compound `COc1cccc2c1C(=O)c1c(O)c3c(c(O)c1C2=O)C[C@@](O)(C(=O)CO)C[C@@H]3O[C@H]1C[C@H](N)[C@H](O)[C@H](C)O1` [DOX, doxorubicin] has an IC50 ([1]; Homo sapiens, MDA-MB-231) of 75 nM, an IC95 [2] of 1600 nM and an IC50 ([2]; Homo sapiens, A2780 ADR) of 54 nM. For the same compound, the IC90 ([2]; Homo sapiens, A2780 ADR) was 620 nM, the IC95 [3] was 540 nM and the IC50 ([3]; Homo sapiens) was 50 nM. The IC90 ([3]; Homo sapiens) was 390 nM, the IC95 [4] was 160 nM and the IC50 ([4]; Homo sapiens) was 11 nM. The IC90 ([4]; Homo sapiens) was 75 nM, the IC50 ([5]; Homo sapiens) was 41 nM and the IC50 ([6]; Homo sapiens, OVCAR-8) was 86 ± 3 nM. The IC80 ([6]; Homo sapiens, OVCAR-8) was 410 ± 20 nM, the IC50 ([7]; Mus musculus) was 58 nM and the Platinum drug uptake ([8]; 0.2 μM) was 0.023 ± 0.002 nmol/mg protein. It also gave a Platinum drug uptake ([8]; 1 μM) of 0.12 ± 0.01 nmol/mg protein, a Platinum drug uptake ([8]; 5 μM) of 0.63 ± 0.03 nmol/mg protein and an IC50 ([9]; Homo sapiens, A549) of 23 nM. For the same compound, the IC50 ([10]; Mus musculus) was 6.5 nM, the IC50 ([11]; Homo sapiens, U2OS) was 13 nM and the Platinum drug uptake ([12]; human, 3 h, 0.2 μM) was 0.0087 ± 0.0008 nmol/mg protein. The Platinum drug uptake ([12]; human, 3 h, 1 μM) was 0.051 ± 0.001 nmol/mg protein, the Platinum drug uptake ([12]; human, 3 h, 5 μM) was 0.36 ± 0.07 nmol/mg protein and the IC50 ([13]; Homo sapiens, 72 h) was 250 ± 10 nM. The IC80 ([13]; Homo sapiens, 72 h) was 740 ± 50 nM, the “Fold Resistance (IC50, OVCAR8OXR vs OVCAR8)” value ([13]; 72-h exposure) was 2.9 fold and the “Fold Resistance (IC80, OVCAR8OXR vs OVCAR8)” value ([13]; 72-h exposure) was 1.8 fold. The IC50 ([14]; Homo sapiens, HL-60) was 43 nM, the IC50 ([15]; Mus musculus) was 75 nM and the IC50 ([16]; Homo sapiens, HT-29) was 38 nM. It also gave an IC50 ([17]; Mus musculus) of 9.1 nM and an IC50 ([18]; Mus musculus) of 45 nM.
In the case of `O=C1[O][Pt]2([NH][C@@H]3CCCC[C@H]3[NH]2)[O]C1=O` [Ox, oxaliplatin], the IC50 [1] is reported as 920 nM, the IC50 [2] is reported as 430 nM and the IC90 [2] is reported as 2400 nM. It also gave an IC95 [2] of 29000 nM, an IC50 [3] of 430 nM and an IC90 [3] of 6600 nM. It also gave an IC95 [3] of 13000 nM, an IC50 [4] of 170 nM and an IC90 [4] of 590 nM. It also gave an IC95 [4] of 5600 nM, an IC50 [5] of 1000 nM and an IC50 [6] of 580 ± 60 nM. For the same compound, the IC80 [6] was 12000 ± 3000 nM, the IC50 [7] was 2200 nM and the IC50 [9] was 400 nM. For the same compound, the IC50 [10] was 2200 nM, the IC50 [11] was 580 nM and the “Platinum drug uptake (separate comparison experiment)” value [12] was 0.0065 ± 0.0004 nmol/mg protein. The Platinum drug uptake ([12]; A2780ADR, [Drug] 0.20 μM, three hours) was 0.0011 ± 0.0004 nmol/mg protein, the Platinum drug uptake ([12]; A2780ADR, [Drug] 1.0 μM, three hours) was 0.0039 ± 0.0001 nmol/mg protein and the Platinum drug uptake ([12]; A2780ADR, [Drug] 5.0 μM, three hours) was 0.023 ± 0.001 nmol/mg protein. The Platinum drug uptake ([19]; A2780, [Drug] 0.20 μM) was 0.0029 ± 0.0006 nmol/mg protein, the Platinum drug uptake ([19]; A2780, [Drug] 1.0 μM) was 0.0093 ± 0.0004 nmol/mg protein and the Platinum drug uptake ([19]; A2780, [Drug] 5.0 μM) was 0.050 ± 0.004 nmol/mg protein. For the same compound, the “Platinum drug uptake (separate comparison experiment)” value ([19]; A2780, single drug 1.0 μM or oxaliplatin 1.0 μM + doxorubicin 1.0 μM) was 0.011 ± 0.000 nmol/mg protein, the “Fold Resistance (IC50, OVCAR8OXR vs OVCAR8)” value ([13]; 72-h exposure) was 14 fold and the “Fold Resistance (IC80, OVCAR8OXR vs OVCAR8)” value ([13]; 72-h exposure) was 3.3 fold. The IC50 ([13]; 72-h exposure) was 8200 ± 1300 nM, the IC80 ([13]; 72-h exposure) was 40000 ± 2000 nM and the IC50 [14] was 560 nM. It also gave an IC50 [15] of 4100 nM, an IC50 [16] of 470 nM and an IC50 [17] of 1400 nM. The IC50 [18] was 1500 nM.
